Consider 68 sequences from the supplement of paper PMC11208160.

A short description of this series: recombinant UMI read abundance after kanamycin selection (control-corrected) (log10(CPM+1)); higher = more efficient recombination; extreme values may be limits of the assay; sequences stand for … in AGTGCAGAGAAAATCGGCCAGTTTTCTCTGCCTGCAGTCCGCATGCCGTGGGACCCCTTGGGTTCTAACCTGTTGCCTAGATTTATGCAGCGGACTGCCTTTCTCCCAAAGTGATAAACCGG…AGGTTGGTTTCACT; site = the 11-nt donor. A digest of the protocol: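 Values are reported as log10(CPM+1), obtained by converting sequencing counts to CPM, averaging replicates and scaling by control-derived factors. The counts came from recombinant UMIs amplified by PCR across the donor–target junction. These UMIs came from a pooled Escherichia coli screen of donor and donor-binding-loop pairs for the IS621 bridge recombinase, plated with IPTG (0.07 mM) plus kanamycin or left unselected, in two replicates each.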
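Also: IS621 bridge recombinase in Escherichia coli cells against a fixed T5 target plasmid.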

Consider “TAATGAGCATGGACCGGTTTTCCCGGTAATCCGTATTTGAG (site TAATGAGCTCC)”, for which the “recombinant UMI read abundance (log10)” value amounted to 0.104.

As to “TAATGAGCATGGACCGGTTTTCCCGGTAATCCGTATTTGAG (site TAATGAGCTCG)”, the “recombinant UMI read abundance (log10)” value came out at 0.341.

Regarding “TAATGAGCATGGACCGGTTTTCCCGGTAATCCGTATTTGAG (site TAATGAGCTCT)”, the “recombinant UMI read abundance (log10)” value worked out at 1.33.

For the sequence “TAATGAGCATGGACCGGTTTTCCCGGTAATCCGTATTTGCG (site TAATGAGCTCA)”, the “recombinant UMI read abundance (log10)” value came to 0.385.

In the case of “TAATGAGCATGGACCGGTTTTCCCGGTAATCCGTATTTGCG (site TAATGAGCTCC)”, the “recombinant UMI read abundance (log10)” value turned out to be 0.00423.

On to “TAATGAGCATGGACCGGTTTTCCCGGTAATCCGTATTTGCG (site TAATGAGCTCG)”, for which the “recombinant UMI read abundance (log10)” value amounted to 1.58.

As to “TAATGAGCATGGACCGGTTTTCCCGGTAATCCGTATTTGCG (site TAATGAGCTCT)”, the “recombinant UMI read abundance (log10)” value was found to be 0.626.

Regarding “TAATGAGCATGGACCGGTTTTCCCGGTAATCCGTATTTGGG (site AAATGAGCTCC)”, the “recombinant UMI read abundance (log10)” value came out at 0.117.

Regarding “TAATGAGCATGGACCGGTTTTCCCGGTAATCCGTATTTGGG (site CAATGAGCTCC)”, the “recombinant UMI read abundance (log10)” value came to 0.0721.

For the sequence “TAATGAGCATGGACCGGTTTTCCCGGTAATCCGTATTTGGG (site GAATGAGCTCC)”, the “recombinant UMI read abundance (log10)” value was 0.00249.

For the sequence “TAATGAGCATGGACCGGTTTTCCCGGTAATCCGTATTTGGG (site TAAAGAGCTCC)”, the “recombinant UMI read abundance (log10)” value came to 0.00438.

Take “TAATGAGCATGGACCGGTTTTCCCGGTAATCCGTATTTGGG (site TAACGAGCTCC)”: the “recombinant UMI read abundance (log10)” value was found to be 0.0128.

Take “TAATGAGCATGGACCGGTTTTCCCGGTAATCCGTATTTGGG (site TAAGGAGCTCC)”: the “recombinant UMI read abundance (log10)” value stood at 0.0167.

For the sequence “TAATGAGCATGGACCGGTTTTCCCGGTAATCCGTATTTGGG (site TAATAAGCTCC)”, the “recombinant UMI read abundance (log10)” value was 0.0171.

For “TAATGAGCATGGACCGGTTTTCCCGGTAATCCGTATTTGGG (site TAATCAGCTCC)”, the “recombinant UMI read abundance (log10)” value amounted to 0.0102.

Turning to “TAATGAGCATGGACCGGTTTTCCCGGTAATCCGTATTTGGG (site TAATGAACTCC)”, the “recombinant UMI read abundance (log10)” value worked out at 0.0101.

Take “TAATGAGCATGGACCGGTTTTCCCGGTAATCCGTATTTGGG (site TAATGACCTCC)”: the “recombinant UMI read abundance (log10)” value worked out at 0.00784.

Regarding “TAATGAGCATGGACCGGTTTTCCCGGTAATCCGTATTTGGG (site TAATGAGCTAC)”, the “recombinant UMI read abundance (log10)” value turned out to be 0.0203.

Take “TAATGAGCATGGACCGGTTTTCCCGGTAATCCGTATTTGGG (site TAATGAGCTCA)”: the “recombinant UMI read abundance (log10)” value was 0.00405.

Turning to “TAATGAGCATGGACCGGTTTTCCCGGTAATCCGTATTTGGG (site TAATGAGCTCC)”, the “recombinant UMI read abundance (log10)” value amounted to 0.304.

“TAATGAGCATGGACCGGTTTTCCCGGTAATCCGTATTTGGG (site TAATGAGCTCG)”: the “recombinant UMI read abundance (log10)” value is 0.0101.

“TAATGAGCATGGACCGGTTTTCCCGGTAATCCGTATTTGGG (site TAATGAGCTCT)”: the “recombinant UMI read abundance (log10)” value came out at 0.0248.

Consider “TAATGAGCATGGACCGGTTTTCCCGGTAATCCGTATTTGGG (site TAATGAGCTGC)”, for which the “recombinant UMI read abundance (log10)” value was determined as 0.

Consider “TAATGAGCATGGACCGGTTTTCCCGGTAATCCGTATTTGGG (site TAATGAGCTTC)”, for which the “recombinant UMI read abundance (log10)” value amounted to 0.0139.

For the sequence “TAATGAGCATGGACCGGTTTTCCCGGTAATCCGTATTTGGG (site TAATGATCTCC)”, the “recombinant UMI read abundance (log10)” value was determined as 0.

Turning to “TAATGAGCATGGACCGGTTTTCCCGGTAATCCGTATTTGGG (site TAATGCGCTCC)”, the “recombinant UMI read abundance (log10)” value came to 0.00982.

For the sequence “TAATGAGCATGGACCGGTTTTCCCGGTAATCCGTATTTGGG (site TAATGGGCTCC)”, the “recombinant UMI read abundance (log10)” value came to 0.0142.

For “TAATGAGCATGGACCGGTTTTCCCGGTAATCCGTATTTGGG (site TAATGTGCTCC)”, the “recombinant UMI read abundance (log10)” value is 0.

For the sequence “TAATGAGCATGGACCGGTTTTCCCGGTAATCCGTATTTGGG (site TAATTAGCTCC)”, the “recombinant UMI read abundance (log10)” value came out at 0.00449.

As for “TAATGAGCATGGACCGGTTTTCCCGGTAATCCGTATTTGGG (site TACTGAGCTCC)”, the “recombinant UMI read abundance (log10)” value came to 0.00582.

Turning to “TAATGAGCATGGACCGGTTTTCCCGGTAATCCGTATTTGGG (site TAGTGAGCTCC)”, the “recombinant UMI read abundance (log10)” value worked out at 0.0336.

In the case of “TAATGAGCATGGACCGGTTTTCCCGGTAATCCGTATTTGGG (site TATTGAGCTCC)”, the “recombinant UMI read abundance (log10)” value amounted to 0.0136.

Regarding “TAATGAGCATGGACCGGTTTTCCCGGTAATCCGTATTTGGG (site TCATGAGCTCC)”, the “recombinant UMI read abundance (log10)” value came out at 0.203.

For the sequence “TAATGAGCATGGACCGGTTTTCCCGGTAATCCGTATTTGGG (site TGATGAGCTCC)”, the “recombinant UMI read abundance (log10)” value amounted to 0.00873.

Regarding “TAATGAGCATGGACCGGTTTTCCCGGTAATCCGTATTTGGG (site TTATGAGCTCC)”, the “recombinant UMI read abundance (log10)” value was found to be 0.0156.

For the sequence “TAATGCTCATGGACCGGTTTTCCCGGTAATCCGTATTTGAA (site AAATGCTCTTT)”, the “recombinant UMI read abundance (log10)” value turned out to be 0.111.

For the sequence “TAATGCTCATGGACCGGTTTTCCCGGTAATCCGTATTTGAA (site CAATGCTCTTT)”, the “recombinant UMI read abundance (log10)” value is 0.61.

For the sequence “TAATGCTCATGGACCGGTTTTCCCGGTAATCCGTATTTGAA (site GAATGCTCTTT)”, the “recombinant UMI read abundance (log10)” value worked out at 0.106.

Turning to “TAATGCTCATGGACCGGTTTTCCCGGTAATCCGTATTTGAA (site TAATGCTCTTT)”, the “recombinant UMI read abundance (log10)” value was found to be 1.19.

“TAATGTCCATGGACCGGTTTTCCCGGTAATCCGTATTTGTA (site TAAAGTCCTTA)”: the “recombinant UMI read abundance (log10)” value was determined as 0.459.

Regarding “TAATGTCCATGGACCGGTTTTCCCGGTAATCCGTATTTGTA (site TAACGTCCTTA)”, the “recombinant UMI read abundance (log10)” value came out at 0.254.

As for “TAATGTCCATGGACCGGTTTTCCCGGTAATCCGTATTTGTA (site TAAGGTCCTTA)”, the “recombinant UMI read abundance (log10)” value amounted to 0.586.

In the case of “TAATGTCCATGGACCGGTTTTCCCGGTAATCCGTATTTGTA (site TAATGTCCTTA)”, the “recombinant UMI read abundance (log10)” value was determined as 0.766.

As for “TAATTAGCATGGACCGGTTTTCCCGGTAATCCGTATTTGGG (site TAATAAGCTCC)”, the “recombinant UMI read abundance (log10)” value worked out at 0.00264.

As to “TAATTAGCATGGACCGGTTTTCCCGGTAATCCGTATTTGGG (site TAATCAGCTCC)”, the “recombinant UMI read abundance (log10)” value was 0.0055.

In the case of “TAATTAGCATGGACCGGTTTTCCCGGTAATCCGTATTTGGG (site TAATGAGCTCC)”, the “recombinant UMI read abundance (log10)” value was determined as 0.0311.

For the sequence “TAATTAGCATGGACCGGTTTTCCCGGTAATCCGTATTTGGG (site TAATTAGCTCC)”, the “recombinant UMI read abundance (log10)” value was found to be 0.0073.

“TAATTCACATGGACCGGTTTTCCCGGTAATCCGTATTTGGG (site TAATTCACTCC)”: the “recombinant UMI read abundance (log10)” value is 0.0061.

For “TAATTGGCATGGACCGGTTTTCCCGGTAATCCGTATTTGTG (site TAATTGGCTCA)”, the “recombinant UMI read abundance (log10)” value was 0.484.

With “TAATTGGCATGGACCGGTTTTCCCGGTAATCCGTATTTGTG (site TACTTGGCTCA)”, the “recombinant UMI read abundance (log10)” value came to 0.0115.

“TAATTGGCATGGACCGGTTTTCCCGGTAATCCGTATTTGTG (site TAGTTGGCTCA)”: the “recombinant UMI read abundance (log10)” value amounted to 0.0118.

As for “TAATTGGCATGGACCGGTTTTCCCGGTAATCCGTATTTGTG (site TATTTGGCTCA)”, the “recombinant UMI read abundance (log10)” value came to 0.00466.

In the case of “TACAAGGCATGGACCGGTTTTCCCGGTAATCCGTATTTGGT (site TACAAGGCTAC)”, the “recombinant UMI read abundance (log10)” value was found to be 0.732.

With “TACACCGCATGGACCGGTTTTCCCGGTAATCCGTATTTGTA (site TACACCGCTTA)”, the “recombinant UMI read abundance (log10)” value is 1.36.

For the sequence “TACACTTCATGGACCGGTTTTCCCGGTAATCCGTATTTGGC (site TACACTTCTGC)”, the “recombinant UMI read abundance (log10)” value came to 0.

Turning to “TACAGGCCATGGACCGGTTTTCCCGGTAATCCGTATTTGAC (site TACAGGCCTGT)”, the “recombinant UMI read abundance (log10)” value came to 0.

As to “TACATCTCATGGACCGGTTTTCCCGGTAATCCGTATTTGTG (site TACATCTCTCA)”, the “recombinant UMI read abundance (log10)” value is 0.976.

For “TACATGACATGGACCGGTTTTCCCGGTAATCCGTATTTGCT (site TACATGACTAG)”, the “recombinant UMI read abundance (log10)” value is 2.15.

“TACATGACATGGACCGGTTTTCCCGGTAATCCGTATTTGCT (site TACCTGACTAG)”: the “recombinant UMI read abundance (log10)” value turned out to be 0.938.

“TACATGACATGGACCGGTTTTCCCGGTAATCCGTATTTGCT (site TACGTGACTAG)”: the “recombinant UMI read abundance (log10)” value is 0.566.

With “TACATGACATGGACCGGTTTTCCCGGTAATCCGTATTTGCT (site TACTTGACTAG)”, the “recombinant UMI read abundance (log10)” value came out at 0.0568.

In the case of “TACCCTGCATGGACCGGTTTTCCCGGTAATCCGTATTTGCA (site TACCCTGCTTG)”, the “recombinant UMI read abundance (log10)” value turned out to be 0.

As to “TACCGAACATGGACCGGTTTTCCCGGTAATCCGTATTTGGA (site TACCGAACTTC)”, the “recombinant UMI read abundance (log10)” value is 0.277.

With “TACCTTACATGGACCGGTTTTCCCGGTAATCCGTATTTGCG (site TACCTTACTCG)”, the “recombinant UMI read abundance (log10)” value stood at 0.0203.

For “TACGATGCATGGACCGGTTTTCCCGGTAATCCGTATTTGCT (site TACGATGCTAG)”, the “recombinant UMI read abundance (log10)” value was determined as 1.98.

For “TACGCCACATGGACCGGTTTTCCCGGTAATCCGTATTTGAG (site TACGCCACTCT)”, the “recombinant UMI read abundance (log10)” value was 0.652.

For “TACGGTACATGGACCGGTTTTCCCGGTAATCCGTATTTGGT (site TACGGTACTAC)”, the “recombinant UMI read abundance (log10)” value stood at 0.321.

In the case of “TACGTTTCATGGACCGGTTTTCCCGGTAATCCGTATTTGCC (site TACGTTTCTGG)”, the “recombinant UMI read abundance (log10)” value came out at 1.7.
